# Laboratory results reported in ChEMBL document CHEMBL1201862, “PubChem BioAssay data set” (2004).
#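 Values below derive from 48-hour exposures of cells grown in 96-well plates, with endpoints linearly interpolated between the two concentrations bracketing the appropriate inhibition level. Here, GI50 denotes the concentration required for 50% inhibition of growth.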 The source made the active and inactive calls. Cut-off read from the data, not from the text of the source: active = GI50 up to about 1.1 µM and inactive = higher.
# Tests used:
# Assay in all cases: NCI-60 cell line screen, 48 h
# 786-0 = tested on: 786-0
# OVCAR-3 = tested on: OVCAR-3
# SK-OV-3 = tested on: SK-OV-3
# SF-295 = tested on: SF-295
# HOP-92 = tested on: HOP-92
# SR = tested on: SR
# KM-20L2 = tested on: KM-20L2
# RPMI-8226 = tested on: RPMI-8226
# CAKI-1 = tested on: CAKI-1
# SN12C = tested on: SN12C
# COLO 205 = tested on: COLO 205
# Malme-3M = tested on: Malme-3M
# NCI-H460 = tested on: NCI-H460
# HT-29 = tested on: HT-29
# U-251 = tested on: U-251
# SK-MEL-2 = tested on: SK-MEL-2
# UACC-62 = tested on: UACC-62
# SK-MEL-5 = tested on: SK-MEL-5
# SK-MEL-28 = tested on: SK-MEL-28
# SF-268 = tested on: SF-268
# IGROV-1 = tested on: IGROV-1
# SF-539 = tested on: SF-539
# UACC-257 = tested on: UACC-257
# ACHN = tested on: ACHN
# NCI-H226 = tested on: NCI-H226
# A549 = tested on: A549
# M14 = tested on: M14
# SNB-78 = tested on: SNB-78
# SW-620 = tested on: SW-620
# A498 = tested on: A498
# HOP-62 = tested on: HOP-62
# HL-60 = tested on: HL-60
# CCRF-CEM = tested on: CCRF-CEM
# M19-MEL = tested on: M19-MEL
# LXFL 529 = tested on: LXFL 529
# MOLT-4 = tested on: MOLT-4
# HCT-116 = tested on: HCT-116
# OVCAR-8 = tested on: OVCAR-8
# SNB-75 = tested on: SNB-75
# KM12 = tested on: KM12
# DMS-114 = tested on: DMS-114
# TK-10 = tested on: TK-10
# DMS-273 = tested on: DMS-273
# OVCAR-5 = tested on: OVCAR-5
# NCI-H23 = tested on: NCI-H23
# NCI-H522 = tested on: NCI-H522
# UO-31 = tested on: UO-31
# HCT-15 = tested on: HCT-15
# K562 = tested on: K562
# LOX IMVI = tested on: LOX IMVI
# RXF 393 = tested on: RXF 393
# HOP-18 = tested on: HOP-18
# OVCAR-4 = tested on: OVCAR-4
# EKVX = tested on: EKVX
# DLD-1 = tested on: DLD-1
# SNB-19 = tested on: SNB-19
# HCC 2998 = tested on: HCC 2998
structure (smiles),measurement,setting,value
Cn1ncnc1CCc1ccccc1,GI50,786-0,> 100 µM (inactive)
same,GI50,OVCAR-3,> 100 µM (inactive)
same,GI50,SK-OV-3,> 100 µM (inactive)
same,GI50,SF-295,> 100 µM (inactive)
same,GI50,HOP-92,> 100 µM (inactive)
same,GI50,SR,> 100 µM (inactive)
same,GI50,KM-20L2,> 100 µM (inactive)
same,GI50,RPMI-8226,> 100 µM (inactive)
same,GI50,CAKI-1,> 100 µM (inactive)
same,GI50,SN12C,> 100 µM (inactive)
same,GI50,COLO 205,> 100 µM (inactive)
same,GI50,Malme-3M,> 100 µM (inactive)
same,GI50,NCI-H460,> 100 µM (inactive)
same,GI50,HT-29,> 100 µM (inactive)
same,GI50,U-251,> 100 µM (inactive)
same,GI50,SK-MEL-2,> 100 µM (inactive)
same,GI50,UACC-62,> 100 µM (inactive)
same,GI50,SK-MEL-5,> 100 µM (inactive)
same,GI50,SK-MEL-28,> 100 µM (inactive)
same,GI50,SF-268,> 100 µM (inactive)
same,GI50,IGROV-1,> 100 µM (inactive)
same,GI50,SF-539,> 100 µM (inactive)
same,GI50,UACC-257,> 100 µM (inactive)
same,GI50,ACHN,> 100 µM (inactive)
same,GI50,NCI-H226,> 100 µM (inactive)
same,GI50,A549,> 100 µM (inactive)
same,GI50,M14,> 100 µM (inactive)
same,GI50,SNB-78,> 100 µM (inactive)
same,GI50,SW-620,> 100 µM (inactive)
same,GI50,A498,> 100 µM (inactive)
same,GI50,HOP-62,> 100 µM (inactive)
same,GI50,HL-60,> 100 µM (inactive)
same,GI50,CCRF-CEM,> 100 µM (inactive)
same,GI50,M19-MEL,> 100 µM (inactive)
same,GI50,LXFL 529,> 100 µM (inactive)
same,GI50,MOLT-4,> 100 µM (inactive)
same,GI50,HCT-116,> 100 µM (inactive)
same,GI50,OVCAR-8,> 100 µM (inactive)
same,GI50,SNB-75,> 100 µM (inactive)
same,GI50,KM12,> 100 µM (inactive)
same,GI50,DMS-114,> 100 µM (inactive)
same,GI50,TK-10,> 100 µM (inactive)
same,GI50,DMS-273,> 100 µM (inactive)
same,GI50,OVCAR-5,> 100 µM (inactive)
same,GI50,NCI-H23,> 100 µM (inactive)
same,GI50,NCI-H522,> 100 µM (inactive)
same,GI50,UO-31,> 100 µM (inactive)
same,GI50,HCT-15,> 100 µM
same,GI50,K562,> 100 µM (inactive)
same,GI50,LOX IMVI,> 100 µM (inactive)
same,GI50,RXF 393,> 100 µM (inactive)
same,GI50,HOP-18,> 100 µM (inactive)
same,GI50,OVCAR-4,> 100 µM (inactive)
N=C(c1ccccc1)N1CCCCC1,GI50,786-0,> 100 µM (inactive)
same,GI50,SF-295,> 100 µM (inactive)
same,GI50,HOP-92,< 0.01 µM (active)
same,GI50,SR,> 100 µM (inactive)
same,GI50,KM-20L2,> 100 µM (inactive)
same,GI50,CAKI-1,> 100 µM (inactive)
same,GI50,SN12C,> 100 µM (inactive)
same,GI50,COLO 205,> 100 µM (inactive)
same,GI50,Malme-3M,49 µM (inactive)
same,GI50,NCI-H460,> 100 µM (inactive)
same,GI50,HT-29,> 100 µM (inactive)
same,GI50,U-251,> 100 µM (inactive)
same,GI50,SK-MEL-2,> 100 µM (inactive)
same,GI50,SK-MEL-28,> 100 µM (inactive)
same,GI50,SF-268,> 100 µM (inactive)
same,GI50,SF-539,> 100 µM (inactive)
same,GI50,UACC-257,> 100 µM (inactive)
same,GI50,NCI-H226,> 100 µM (inactive)
same,GI50,A549,> 100 µM (inactive)
same,GI50,M14,> 100 µM (inactive)
same,GI50,SNB-78,> 100 µM (inactive)
same,GI50,SW-620,> 100 µM (inactive)
same,GI50,EKVX,> 100 µM (inactive)
same,GI50,DLD-1,> 100 µM (inactive)
same,GI50,HOP-62,> 100 µM (inactive)
same,GI50,HL-60,> 100 µM (inactive)
same,GI50,M19-MEL,> 100 µM (inactive)
same,GI50,LXFL 529,> 100 µM (inactive)
same,GI50,HCT-116,> 100 µM (inactive)
same,GI50,OVCAR-8,> 100 µM (inactive)
same,GI50,SNB-75,> 100 µM (inactive)
same,GI50,KM12,> 100 µM (inactive)
same,GI50,DMS-114,> 100 µM (inactive)
same,GI50,TK-10,> 100 µM (inactive)
same,GI50,DMS-273,> 100 µM (inactive)
same,GI50,OVCAR-5,> 100 µM (inactive)
same,GI50,NCI-H23,> 100 µM (inactive)
same,GI50,NCI-H522,> 100 µM (inactive)
same,GI50,UO-31,> 100 µM (inactive)
same,GI50,LOX IMVI,> 100 µM (inactive)
same,GI50,RXF 393,> 100 µM (inactive)
same,GI50,HOP-18,> 100 µM (inactive)
same,GI50,SNB-19,> 100 µM (inactive)
same,GI50,HCC 2998,> 100 µM (inactive)
same,GI50,OVCAR-4,> 100 µM (inactive)
CC(NC1CCCC[C@H]1O)c1ccccc1 (some centres undefined),GI50,786-0,> 100 µM (inactive)
same,GI50,SK-OV-3,> 100 µM (inactive)
same,GI50,HOP-92,> 100 µM (inactive)
same,GI50,KM-20L2,> 100 µM (inactive)
same,GI50,RPMI-8226,> 100 µM (inactive)
same,GI50,CAKI-1,> 100 µM (inactive)
same,GI50,COLO 205,> 100 µM (inactive)
same,GI50,Malme-3M,> 100 µM (inactive)
same,GI50,NCI-H460,> 100 µM (inactive)
same,GI50,HT-29,> 100 µM (inactive)
same,GI50,U-251,> 100 µM (inactive)
same,GI50,SK-MEL-2,> 100 µM (inactive)
same,GI50,UACC-62,> 100 µM (inactive)
same,GI50,SK-MEL-5,> 100 µM (inactive)
same,GI50,SK-MEL-28,> 100 µM (inactive)
same,GI50,IGROV-1,> 100 µM (inactive)
same,GI50,UACC-257,> 100 µM (inactive)
same,GI50,ACHN,> 100 µM (inactive)
same,GI50,NCI-H226,> 100 µM (inactive)
same,GI50,A549,> 100 µM (inactive)
same,GI50,M14,> 100 µM (inactive)
same,GI50,SNB-78,> 100 µM (inactive)
same,GI50,SW-620,> 100 µM (inactive)
same,GI50,DLD-1,> 100 µM (inactive)
same,GI50,HOP-62,> 100 µM (inactive)
same,GI50,M19-MEL,> 100 µM (inactive)
same,GI50,LXFL 529,> 100 µM (inactive)
same,GI50,MOLT-4,> 100 µM (inactive)
same,GI50,HCT-116,> 100 µM (inactive)
same,GI50,SNB-75,> 100 µM (inactive)
same,GI50,OVCAR-5,> 100 µM (inactive)
same,GI50,UO-31,> 100 µM (inactive)
same,GI50,HOP-18,> 100 µM (inactive)
same,GI50,SNB-19,> 100 µM (inactive)
same,GI50,HCC 2998,> 100 µM (inactive)
same,GI50,OVCAR-4,> 100 µM (inactive)
